From PubChem BioAssay (NCI)
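These data come from cells grown in 96-well plates and exposed to compound for 48 hours at five concentrations. Definition used: TGI = concentration required for complete inhibition of growth.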

Assays:
Assay in all cases: DTP human tumour cell line panel, 48 h
SF-268 CNS = test system: SF-268 CNS
UACC-62 melanoma = test system: UACC-62 melanoma
A549 NSCLC = test system: A549 NSCLC
SK-OV-3 ovarian = test system: SK-OV-3 ovarian
MDA-MB-435 = test system: MDA-MB-435
NCI-H226 lung = test system: NCI-H226 lung
HCT-15 colon = test system: HCT-15 colon
786-0 renal = test system: 786-0 renal
HOP-62 NSCLC = test system: HOP-62 NSCLC
EKVX NSCLC = test system: EKVX NSCLC

SMILES: Cc1ccc(S(=O)CC(CF)OCn2cc(C)c(=O)[nH]c2=O)cc1 (stereo unspecified)
- TGI (SF-268 CNS): > 100 µM
- TGI (UACC-62 melanoma): > 100 µM
- TGI (A549 NSCLC): > 100 µM
- TGI (SK-OV-3 ovarian): > 100 µM
- TGI (MDA-MB-435): > 100 µM
- TGI (NCI-H226 lung): > 100 µM
- TGI (HCT-15 colon): > 100 µM
- TGI (786-0 renal): > 100 µM
- TGI (HOP-62 NSCLC): > 100 µM

SMILES: CN(Cc1cnc2nc(N)nc(N)c2n1)c1ccc(C(=O)NC(CO)CCCO)cc1 (stereo unspecified)
- TGI (SF-268 CNS): > 100 µM
- TGI (UACC-62 melanoma): > 100 µM
- TGI (SK-OV-3 ovarian): > 100 µM
- TGI (MDA-MB-435): > 100 µM
- TGI (EKVX NSCLC): > 100 µM
- TGI (NCI-H226 lung): > 100 µM
- TGI (HCT-15 colon): > 100 µM
- TGI (786-0 renal): > 100 µM
- TGI (HOP-62 NSCLC): > 100 µM

SMILES: O=[N+]([O-])c1cccc(N=Nc2c(O)c(S(=O)(=O)O)cc3cc(S(=O)(=O)O)ccc23)c1
- TGI (SF-268 CNS): > 100 µM
- TGI (UACC-62 melanoma): > 100 µM
- TGI (A549 NSCLC): > 100 µM
- TGI (SK-OV-3 ovarian): > 100 µM
- TGI (MDA-MB-435): > 100 µM
- TGI (EKVX NSCLC): > 100 µM
- TGI (NCI-H226 lung): > 100 µM
- TGI (HCT-15 colon): > 100 µM
- TGI (786-0 renal): > 100 µM
- TGI (HOP-62 NSCLC): > 100 µM

SMILES: COc1ccc(C(SC2C(O)C(CO)OC2n2ccc(=O)[nH]c2=O)(c2ccccc2)c2ccc(OC)cc2)cc1 (stereo unspecified)
- TGI (SF-268 CNS): 40.1 µM
- TGI (UACC-62 melanoma): 33.3 µM
- TGI (A549 NSCLC): 45.4 µM
- TGI (SK-OV-3 ovarian): 84.7 µM
- TGI (MDA-MB-435): 22.8 µM
- TGI (EKVX NSCLC): 41.8 µM
- TGI (NCI-H226 lung): 31.9 µM
- TGI (HCT-15 colon): 33.3 µM
- TGI (786-0 renal): 32 µM
- TGI (HOP-62 NSCLC): 40.8 µM

SMILES: CC(C)=CCNc1nc(Cl)nc2nc[nH]c12
- TGI (SF-268 CNS): > 100 µM
- TGI (UACC-62 melanoma): > 100 µM
- TGI (A549 NSCLC): > 100 µM
- TGI (SK-OV-3 ovarian): 46 µM
- TGI (MDA-MB-435): > 100 µM
- TGI (EKVX NSCLC): > 100 µM
- TGI (NCI-H226 lung): > 100 µM
- TGI (786-0 renal): > 100 µM
- TGI (HOP-62 NSCLC): 79.2 µM

SMILES: COC(=O)C1C(=O)N(C)C(=O)N2CCCC12 (stereo unspecified)
- TGI (SF-268 CNS): > 100 µM
- TGI (UACC-62 melanoma): > 100 µM
- TGI (A549 NSCLC): > 100 µM
- TGI (SK-OV-3 ovarian): > 100 µM
- TGI (MDA-MB-435): > 100 µM
- TGI (EKVX NSCLC): > 100 µM
- TGI (NCI-H226 lung): > 100 µM
- TGI (HCT-15 colon): > 100 µM
- TGI (786-0 renal): > 100 µM
- TGI (HOP-62 NSCLC): > 100 µM

SMILES: C=C(C)CC1(O[Si](C)(C)C)C(=O)C(OCC)=C1OCC (stereo unspecified)
- TGI (SF-268 CNS): > 100 µM
- TGI (UACC-62 melanoma): > 100 µM
- TGI (A549 NSCLC): > 100 µM
- TGI (SK-OV-3 ovarian): > 100 µM
- TGI (MDA-MB-435): > 100 µM
- TGI (EKVX NSCLC): > 100 µM
- TGI (NCI-H226 lung): > 100 µM
- TGI (HCT-15 colon): > 100 µM
- TGI (786-0 renal): > 100 µM
- TGI (HOP-62 NSCLC): > 100 µM

SMILES: COc1cc(C2C3=C(COC3=O)Oc3cc4c(cc32)OCO4)cc(OC)c1O (stereo unspecified)
- TGI (SF-268 CNS): 26.8 µM
- TGI (UACC-62 melanoma): 2.69 µM
- TGI (A549 NSCLC): > 60.6 µM
- TGI (SK-OV-3 ovarian): 1.48 µM
- TGI (EKVX NSCLC): 94.1 µM
- TGI (NCI-H226 lung): 0.215 µM
- TGI (HCT-15 colon): > 100 µM
- TGI (786-0 renal): 15.5 µM
- TGI (HOP-62 NSCLC): 15.2 µM

SMILES: C/C(=N\Nc1nc2cc(C(F)(F)F)ccc2s1)c1ccccn1
- TGI (SF-268 CNS): 3.19 µM
- TGI (UACC-62 melanoma): 3.38 µM
- TGI (SK-OV-3 ovarian): 11.3 µM
- TGI (MDA-MB-435): 7.62 µM
- TGI (EKVX NSCLC): 5.55 µM
- TGI (NCI-H226 lung): 3.31 µM
- TGI (HCT-15 colon): > 38.9 µM
- TGI (786-0 renal): 5.5 µM
- TGI (HOP-62 NSCLC): 13.7 µM

SMILES: CC1(C)CC2(CC(C)(C)N1O)NC(=O)OC2=O
- TGI (SF-268 CNS): > 100 µM
- TGI (UACC-62 melanoma): > 100 µM
- TGI (A549 NSCLC): > 100 µM
- TGI (SK-OV-3 ovarian): > 100 µM
- TGI (EKVX NSCLC): > 100 µM
- TGI (NCI-H226 lung): > 100 µM
- TGI (HCT-15 colon): > 100 µM
- TGI (HOP-62 NSCLC): > 100 µM

SMILES: CCOC(=O)Nn1c(CC#N)nnc1Cc1ccccc1
- TGI (SF-268 CNS): > 100 µM
- TGI (UACC-62 melanoma): > 100 µM
- TGI (A549 NSCLC): > 100 µM
- TGI (MDA-MB-435): > 100 µM
- TGI (NCI-H226 lung): > 100 µM
- TGI (HCT-15 colon): > 100 µM
- TGI (786-0 renal): > 100 µM
- TGI (HOP-62 NSCLC): > 100 µM
